Tests used:
[1] = tested on: TICs; test: RNA sequencing of drug treated TICs; assay type: cell-based, mouse; details: ATRA 5 μg/ml, 16 hours
Method: RNA sequencing samples were collected at 16 hours of treatment with ATRA (5 μg/ml), SAHA (0.5 μg/ml) or combination treatment. Total RNA for RNA sequencing was extracted using RNeasy Plus Mini Kit (Qiagen), which includes a DNA depletion column. DNase I treatment and rRNA depletion with Tibozero technology were performed before RNA sequencing. Sample quantity and quality was verified by spectrophotometry (NanoDrop 1000), fluorimetry (Qubit), and the Aglient Bioanalyzer 2100 profiler. RNA Integrity Number (RIN) values of >7.0 and OD260/280=2.0-2.2 were used for RNA-seq library preparation. Extracted RNA (1 μg) was used for RNA sequencing (Illumina HiSeq2500 system). Sequenced reads were cleaned according to a rigorous pre-processing workflow (Trimmomatic-0.32) before mapping them to the mouse genome (mm10) using SHRiMP2.2.3 (http://compbio.cs.toronto.edu/shrimp/). Cufflinks2.0.2 (cuffdiff2-Running Cuffdiff) was then used to perform differential expression analysis with a FDR cutoff of 0.05 (95% confidence interval). A Perl script was used after differential expression analysis to improve the readability of the results files. Quality control information was generated via Fastqc: www.bioinformatics.babraham.ac.uk/projects/fastqc/. […] All gene expression profiles were analyzed by Partek Flow, Ingenuity Pathway Analysis and Gene Set Enrichment Analysis.

[2] = tested on: CD133 (+) Huh7 cells; test: Anchorage-independent growth assay in soft agar; assay type: cell-based, human; details: retinoic acid 5 μg/ml, SAHA 0.5 μg/ml; 2 weeks
Method: Freshly sorted CD133 (+)/(−) Huh7 cells were mixed with 0.35% agarose containing 1000 cells per well in culture medium with retinoic acid (5 μg/ml), SAHA (0.5 μg/ml), or a combination of both. After 2 weeks, the colony numbers were counted.

[3] = tested on: CD133 (+) Huh7 cells; test: Tumor spheroid formation assay; assay type: cell-based, human; details: CD133 (+) group; ATRA 5 μg/ml, SAHA 0.5 μg/ml; 2 weeks
Method: Freshly sorted CD133(+)/(−) Huh7 cells were plated in a low binding culture plate (NUNC 145397) containing 100 cells per well in 100 μl of culture medium with ATRA (5 μg/ml), SAHA (0.5 μg/ml), or a combination of both. After 2 weeks, colony numbers were counted.

For `CC1=C(/C=C/C(C)=C/C=C/C(C)=C/C(=O)O)C(C)(C)CCC1` [ATRA, all-trans retinoic acid], the “genes differentially expressed from the controls” value [1] was 189 genes, the “reduction of colony numbers, anchorage independent growth in soft agar” value [2] was 50% and the “reduction of colony numbers, tumor spheroid formation” value [3] was 83%.
